Assay results: ChEMBL document CHEMBL4321845, “Discovery and Characterization of Potent Pan-Genotypic HCV NS5A Inhibitors Containing Novel Tricyclic Central Core Leading to Clinical Candidate” (J Med Chem, 2019); call rule not given here

Tests used:
[1] = AUC(last) in beagle dog at 1 mg/kg, iv measured up to 24 hrs by LC-MS/MS analysis; format: ADME, organism-based, Canis lupus familiaris; design: dose 1 mg/kg, route intravenous, time 0 - last; settings: in vivo
[2] = Drug metabolism in rat liver microsomes assessed as metabolic rate at 1 uM preincubated for 5 mins before NADPH addition and measured up to 30 mins by LC-MS/MS analysis; format: ADME, Microsome; settings: 0.5 h
[3] = Half life in rat at 1 mg/kg, iv measured up to 24 hrs by LC-MS/MS analysis; format: ADME, organism-based; settings: in vivo
[4] = Cmax in rat at 30 mg/kg, po measured up to 24 hrs by LC-MS/MS analysis; format: ADME, organism-based; design: dose 30 mg/kg, route oral; settings: in vivo
[5] = Oral bioavailability in rat at 10 mg/kg measured up to 24 hrs by LC-MS/MS analysis; format: ADME, organism-based; settings: in vivo
[6] = Protein binding in human plasma; format: ADME, cell-free; settings: read-out: PPB
[7] = Drug level in plasma of Wistar rat at 10 mg/kg, po measured at 4 hrs by LC-MS/MS analysis; format: ADME, organism-based
[8] = Drug metabolism in human liver microsomes assessed as metabolic rate at 1 uM preincubated for 5 mins before NADPH addition and measured up to 30 mins by LC-MS/MS analysis; format: ADME, Microsome; settings: 0.5 h
[9] = Cytotoxicity in human HepG2 cells assessed as inhibition of cell growth at 3 uM incubated for 72 hrs by CCK8 assay relative to control; format: cell-based; settings: read-out: GI
[10] = AUC (last) in beagle dog at 10 mg/kg, po measured up to 24 hrs by LC-MS/MS analysis; format: ADME, organism-based, Canis lupus familiaris; design: dose 10 mg/kg, time 0 - last, route oral; settings: in vivo
[11] = Clearance in rat at 1 mg/kg, iv measured up to 24 hrs by LC-MS/MS analysis; format: ADME, organism-based; settings: in vivo
[12] = Ratio of dug level in liver to plasma of Wistar rat at 10 mg/kg, po measured at 4 hrs by LC-MS/MS analysis; format: ADME, organism-based
[13] = Cmax in beagle dog at 10 mg/kg, po measured up to 24 hrs by LC-MS/MS analysis; format: ADME, organism-based, Canis lupus familiaris; design: dose 10 mg/kg, route oral; settings: in vivo
[14] = Cytotoxicity in human HuH7 cells assessed as inhibition of cell growth at 3 uM incubated for 72 hrs by CCK8 assay relative to control; format: cell-based, Huh-7; settings: read-out: GI
CYP2C9 = CYP2C9 (Homo sapiens, UniProt P11712); assay: Inhibition of CYP2C9 in pooled human liver microsomes at 10 uM pre-incubated for 5 mins before NADPH addition and measured after 10 mins by UPLC-MS/MS analysis relative to control; format: ADME
Chain of CYP2C9 (P11712 whole entry): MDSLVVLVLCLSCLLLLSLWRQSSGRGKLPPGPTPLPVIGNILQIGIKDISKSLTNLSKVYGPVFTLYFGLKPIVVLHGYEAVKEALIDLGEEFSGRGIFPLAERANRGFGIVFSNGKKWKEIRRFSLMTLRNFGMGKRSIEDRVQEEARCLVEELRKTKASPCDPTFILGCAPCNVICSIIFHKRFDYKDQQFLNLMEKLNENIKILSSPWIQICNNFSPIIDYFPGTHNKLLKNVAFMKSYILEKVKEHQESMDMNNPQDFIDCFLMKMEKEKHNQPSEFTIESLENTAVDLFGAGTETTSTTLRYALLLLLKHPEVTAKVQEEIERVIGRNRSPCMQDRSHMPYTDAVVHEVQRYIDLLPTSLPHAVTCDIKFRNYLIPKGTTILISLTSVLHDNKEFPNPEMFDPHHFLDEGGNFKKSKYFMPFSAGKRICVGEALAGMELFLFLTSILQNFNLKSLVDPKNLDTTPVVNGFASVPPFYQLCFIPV

[15] = Oral bioavailability in beagle dog at 10 mg/kg measured up to 24 hrs by LC-MS/MS analysis; format: ADME, organism-based, Canis lupus familiaris; settings: in vivo
[16] = Tmax in rat at 30 mg/kg, po measured up to 24 hrs by LC-MS/MS analysis; format: ADME, organism-based; settings: in vivo
[17] = Cmax in rat at 100 mg/kg, po measured up to 24 hrs by LC-MS/MS analysis; format: ADME, organism-based; design: dose 100 mg/kg, route oral; settings: in vivo
[18] = Drug level in liver of Wistar rat at 10 mg/kg, po measured up to 8 hrs by LC-MS/MS analysis; format: ADME, organism-based; settings: in vivo
[19] = Tmax in rat at 100 mg/kg, po measured up to 24 hrs by LC-MS/MS analysis; format: ADME, organism-based; settings: in vivo
[20] = Clearance in beagle dog at 1 mg/kg, iv measured up to 24 hrs by LC-MS/MS analysis; format: ADME, organism-based, Canis lupus familiaris; settings: in vivo
[21] = Drug level in liver of Wistar rat at 10 mg/kg, po measured at 4 hrs by LC-MS/MS analysis; format: ADME, organism-based; settings: read-out: Drug uptake
[22] = Protein binding in rat plasma; format: ADME, cell-free; settings: read-out: PPB
[23] = Cmax in rat at 10 mg/kg, po measured up to 24 hrs by LC-MS/MS analysis; format: ADME, organism-based; design: dose 10 mg/kg, route oral; settings: in vivo
[24] = AUC(last) in rat at 1 mg/kg, iv measured up to 24 hrs by LC-MS/MS analysis; format: ADME, organism-based; design: dose 1 mg/kg, route intravenous, time 0 - last; settings: in vivo
CYP2D6 = CYP2D6 (Homo sapiens, UniProt P10635); assay: Inhibition of CYP2D6 in pooled human liver microsomes at 10 uM pre-incubated for 5 mins before NADPH addition and measured after 10 mins by UPLC-MS/MS analysis relative to control; format: ADME
Chain of CYP2D6 (P10635 whole entry): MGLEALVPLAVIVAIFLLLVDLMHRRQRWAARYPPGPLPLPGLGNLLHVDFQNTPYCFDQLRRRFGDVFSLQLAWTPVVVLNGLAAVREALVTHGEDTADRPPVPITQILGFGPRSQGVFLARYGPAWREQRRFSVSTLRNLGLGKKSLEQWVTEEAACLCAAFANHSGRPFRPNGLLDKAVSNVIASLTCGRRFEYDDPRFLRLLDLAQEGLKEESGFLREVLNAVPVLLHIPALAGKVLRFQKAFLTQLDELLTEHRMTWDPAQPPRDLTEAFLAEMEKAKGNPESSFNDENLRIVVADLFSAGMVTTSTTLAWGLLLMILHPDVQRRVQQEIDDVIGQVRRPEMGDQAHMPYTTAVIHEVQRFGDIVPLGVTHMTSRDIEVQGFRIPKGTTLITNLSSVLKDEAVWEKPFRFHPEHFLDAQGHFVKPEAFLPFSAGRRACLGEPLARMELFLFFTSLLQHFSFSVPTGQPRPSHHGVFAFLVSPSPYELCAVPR

[25] = Tmax in rat at 10 mg/kg, po measured up to 24 hrs by LC-MS/MS analysis; format: ADME, organism-based; settings: in vivo
[26] = Cytotoxicity in human HepG2 cells assessed as inhibition of cell growth at 10 uM incubated for 72 hrs by CCK8 assay relative to control; format: cell-based; settings: read-out: GI
[27] = AUC (last) in rat at 30 mg/kg, po measured up to 24 hrs by LC-MS/MS analysis; format: ADME, organism-based; design: dose 30 mg/kg, time 0 - last, route oral; settings: in vivo
[28] = Half life in beagle dog at 1 mg/kg, iv measured up to 24 hrs by LC-MS/MS analysis; format: ADME, organism-based, Canis lupus familiaris; settings: in vivo
[29] = Cytotoxicity in human HEK293 cells assessed as inhibition of cell growth at 10 uM incubated for 72 hrs by CCK8 assay relative to control; format: cell-based; settings: read-out: GI
CYP3A4 = CYP3A4 (Homo sapiens, UniProt P08684); assay: Inhibition of CYP3A4 in pooled human liver microsomes at 10 uM pre-incubated for 5 mins before NADPH addition and measured after 10 mins by UPLC-MS/MS analysis relative to control; format: ADME
Chain of CYP3A4 (P08684 whole entry): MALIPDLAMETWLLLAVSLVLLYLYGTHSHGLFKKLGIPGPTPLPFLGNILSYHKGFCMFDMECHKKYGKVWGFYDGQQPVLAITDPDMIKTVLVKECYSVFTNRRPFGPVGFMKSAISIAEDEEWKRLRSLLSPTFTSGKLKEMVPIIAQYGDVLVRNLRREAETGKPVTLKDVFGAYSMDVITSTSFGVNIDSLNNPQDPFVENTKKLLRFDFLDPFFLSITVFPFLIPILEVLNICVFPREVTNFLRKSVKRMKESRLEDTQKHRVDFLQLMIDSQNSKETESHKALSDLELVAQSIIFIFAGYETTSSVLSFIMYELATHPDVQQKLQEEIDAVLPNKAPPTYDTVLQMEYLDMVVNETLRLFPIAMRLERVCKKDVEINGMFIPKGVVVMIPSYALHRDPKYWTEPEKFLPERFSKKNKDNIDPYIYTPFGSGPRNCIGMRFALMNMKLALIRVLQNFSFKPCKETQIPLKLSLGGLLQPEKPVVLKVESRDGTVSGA

[30] = Volume of distribution at steady state in rat at 1 mg/kg, iv measured up to 24 hrs by LC-MS/MS analysis; format: ADME, organism-based; settings: in vivo, read-out: Vdss
[31] = AUC (last) in rat at 100 mg/kg, po measured up to 24 hrs by LC-MS/MS analysis; format: ADME, organism-based; design: dose 100 mg/kg, time 0 - last, route oral; settings: in vivo
[32] = Volume of distribution at steady state in beagle dog at 1 mg/kg, iv measured up to 24 hrs by LC-MS/MS analysis; format: ADME, organism-based, Canis lupus familiaris; settings: in vivo, read-out: Vdss
[33] = Toxicity in beagle dog assessed as induction of emesis at 10 mg/kg measured up to 24 hrs; format: organism-based, Canis lupus familiaris; settings: in vivo
[34] = AUC (last) in rat at 10 mg/kg, po measured up to 24 hrs by LC-MS/MS analysis; format: ADME, organism-based; design: dose 10 mg/kg, time 0 - last, route oral; settings: in vivo
[35] = Cytotoxicity in human HEK293 cells assessed as inhibition of cell growth at 3 uM incubated for 72 hrs by CCK8 assay relative to control; format: cell-based; settings: read-out: GI

- AUC(0-t) at 24 h [1]: 4 µM·h
- Drug metabolism [2]: 0.01 nmol/min/mg
- half-life [3]: 1.5 h
- Cmax [4]: 14 µM
- bioavailability [5]: 30%
- fraction unbound [6]: < 0.01
- concentration at 4 h [7]: 1.25 µM
- Drug metabolism [8]: 0.01 nmol/min/mg
- AUC(0-t) at 24 h [10]: 11 to 93 µM·h
- clearance [11]: 10 mL/min/kg
- Kp at 4 h [12]: 6
- Cmax [13]: 6 µM
- inhibition at 10 min, 10 µM (CYP2C9): 35%
- bioavailability [15]: 37 to 100%
- Tmax [16]: 1 to 4 h
- Cmax [17]: 43 µM
- Drug uptake [18]: Active
- Tmax [19]: 2 to 4 h
- clearance [20]: 5 mL/min/kg
- concentration at 4 h [21]: 7.4 µM
- fraction unbound [22]: < 0.01
- Cmax [23]: 1.6 to 6 µM
- AUC(0-t) at 24 h [24]: 2 µM·h
- inhibition at 10 min, 10 µM (CYP2D6): 36%
- Tmax [25]: 0.25 to 2 h
- AUC(0-t) at 24 h [27]: 77 µM·h
- half-life [28]: 4 h
- inhibition at 10 min, 10 µM (CYP3A4): 56%
- Vd [30]: 1.1 L/kg
- AUC(0-t) at 24 h [31]: 468 µM·h
- Vd [32]: 1 L/kg
- AUC(0-t) at 24 h [34]: 6 to 24 µM·h
SMILES: COC(=O)N[C@H](C(=O)N1CCC[C@H]1c1ncc(-c2ccc3c(c2)CCc2cc(-c4cnc([C@@H]5CCCN5C(=O)[C@@H](NC(=O)OC)C(C)C)[nH]4)sc2-3)[nH]1)C(C)C
- inhibition at 72 h, 3 µM [9]: 0%
- inhibition at 72 h, 3 µM [14]: 2%
- inhibition at 72 h, 10 µM [26]: 6%
- inhibition at 72 h, 10 µM [29]: 28%
- Activity [33]: Toxic
- inhibition at 72 h, 3 µM [35]: 2%
